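Method: 48-hour compound exposure of cells in 96-well plates, five concentrations, linear interpolation of endpoints. GI50 is the concentration that inhibits growth by half.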 Active and inactive are the calls of the source. Cut-off read from the data, not from the text of the source: active = GI50 up to about 1.1 µM and inactive = higher.
What was measured:
Test in all cases: NCI tumour cell line growth inhibition, 48 h
[1] = test system: 786-0
[2] = test system: A498
[3] = test system: ACHN
[4] = test system: HL-60
[5] = test system: HT-29
[6] = test system: K562
[7] = test system: M14
[8] = test system: MDA-N
[9] = test system: MOLT-4
[10] = test system: PC-3
[11] = test system: RXF 393
[12] = test system: SF-295
[13] = test system: SF-539
[14] = test system: SK-MEL-28
[15] = test system: SK-MEL-5
[16] = test system: SNB-19
[17] = test system: SNB-75
[18] = test system: TK-10
[19] = test system: KM12
[20] = test system: UACC-62

Measured: GI50

COC(=O)c1ccc2c(c1)CC1(C2)Cc2ccccc2C1=O (centres undefined)
inactive: [1] 40.2 µM | [2] 37.6 µM | [3] 29.7 µM | [4] 26.5 µM | [5] 17.5 µM | [6] 30.3 µM | [7] 18.7 µM | [8] 27.7 µM | [9] 15.4 µM | [10] 42.8 µM | [11] 33.3 µM | [12] 39.4 µM | [13] 38.6 µM | [14] 14.8 µM | [15] 17.9 µM | [16] 66.1 µM | [17] 24.3 µM | [18] 31 µM

CCCCc1ccc(Nc2nc(S)c3ncn(COCCO)c3n2)cc1
inactive: [1] > 100 µM | [2] > 100 µM | [3] 43.1 µM | [4] 25.2 µM | [5] 50.5 µM | [6] 15.5 µM | [19] 38 µM | [7] 44.4 µM | [8] 41.9 µM | [9] 33.5 µM | [10] 32.9 µM | [11] 56 µM | [12] 64.7 µM | [13] > 100 µM | [15] 62.1 µM | [16] 31.2 µM | [17] 41 µM | [18] 66.2 µM | [20] 41.4 µM

CN(C)CC1CCCCCCCCCC(CN(C)C)C1=O (centres undefined)
inactive: [1] > 20.6 µM | [2] > 28.4 µM | [3] > 31 µM | [4] 15.1 µM | [5] 14.3 µM | [19] > 21.4 µM | [7] 16.9 µM | [8] 5.62 µM | [9] 7.03 µM | [10] 4.41 µM | [11] 8.77 µM | [12] > 42.1 µM | [13] > 27.7 µM | [14] 32.1 µM | [15] 17.3 µM | [16] > 39.7 µM | [17] 17.1 µM | [18] > 37.8 µM | [20] 22 µM

Cc1cc(Nc2ccc(S(=O)(=O)O)c3cc(S(=O)(=O)O)cc(S(=O)(=O)O)c23)c2ccccc2n1
inactive: [1] > 100 µM | [2] > 100 µM | [3] > 100 µM | [4] > 100 µM | [5] > 100 µM | [19] > 100 µM | [7] > 100 µM | [8] > 100 µM | [9] > 100 µM | [10] > 100 µM | [11] > 100 µM | [12] > 100 µM | [13] > 100 µM | [14] > 100 µM | [15] > 100 µM | [16] > 100 µM | [17] > 100 µM | [18] > 100 µM | [20] > 100 µM

c1ccc2c(c1)nc1n2CNCC1
inactive: [1] > 100 µM | [2] > 100 µM | [3] > 100 µM | [4] 68.5 µM | [5] 42.2 µM | [19] > 100 µM | [7] > 100 µM | [8] > 100 µM | [9] 43.3 µM | [10] > 100 µM | [11] 90.8 µM | [12] > 100 µM | [13] > 100 µM | [14] 48.3 µM | [15] > 100 µM | [16] > 100 µM | [17] 90.8 µM | [18] > 100 µM | [20] > 100 µM

Source: ChEMBL document CHEMBL1201862, “PubChem BioAssay data set” (2004)
